# Reference: US7271144B2, “Therapeutic fibrin-derived peptides and uses thereof” (Fibrex Medical Research & Development GmbH, priority 2000, dated 2007)
# Where no end group is shown, it is not given here.
# B1: NDSK: 63 kD fibrinogen fragment, N-terminal disulfide knot; Aalpha-chain 1-51, Bbeta-chain 1–118 and gamma-chain 1-78 (protein)
# chain 1: ADSGEGDFLAEGGGVRGPRVVERHQSACKDSD
# chain 2: QGVNDNEEGFFSARGHRPLDKKREEAPSLRPAPPPISGGGYRARPAKAAATQKKVERKAPDAGGCLHADPDLGVLCPTGCQLQEALLQ
# chain 3: YVATRDNCCILDERFGSYCPTTCGIADFLSTYQTKVDKDLQSLEDILHQVEN
# B2: FCB-2: negative control; 43 kD fibrinogen cleavage product, Aalpha-chain 148-208, Bbeta-chain 191-305 and gamma-chain 95-265 (protein)
# chain 1: KVQHIQLLQKNVRAQLVDMKRLEVDIDIKIRSCRGSCSRALAREVDLKDYEDQQKQLEQVI
# chain 2: IPTNLRVLRSILENLRSKIQKLESDVSAQMEYCRTPCTVSCNIPVVSGKECEEIIRKGGETSEMYLIQPDSSVKPYRVYCDMNTENGGWTVIQNRQDGSVDFGRKWDPYKQGFGN
# chain 3: NPDESSKPNMIDAATLKSRKMLEEIMKYEASILTHDSSIRYLQEIYNSNNQKIVNLKEKVAQLEAQCQEPCKDTVQIHDITGKDCQDIANKGAKQSGLYFIKPLKANQQFLVYCEIDGSGNGWTVFQKRLDGSVDFKKNWIQYKEGFGHLSPTGTTEFWLGNEKIHLISTQ
# Assays:
# [1] = system: human skin transplanted onto the backs of SCID mice, human lymphocytes injected; assay: HU-SCID mouse model: inflammatory sites in transplanted human skin; assay type: in vivo; details: for number of inflammatory sites: Example 3, 100 μg alone, tail vein, mean +/- SD; for number of inflammatory sites / inflammatory sites: 24 hours; for inflammatory sites: Examples 4-7, 100 μg of peptide + 100 μg of human NDSK-II
# Procedure: Human skin was transplanted onto the backs of SCID mice, and two weeks later human lymphocytes were injected into the peritoneum. The proceedings were according to Petzelbauer et al. (J. Invest. Dermatol. 1996, 107; 576-581). Then, fifteen mice thus prepared were injected in their tail veins with the following:
# Twenty-four hours later, the human skin was removed and the number of inflammatory sites, expressed in cells per 0.3 mm^2, was evaluated and the mean value was determined with a standard deviation.
# [2] = system: peripheral mononuclear blood cells (PBMC); assay: Adhesion and transmigration of PBMC on HUVEC on a collagen matrix; assay type: cell-based, human; details: for adhesion / migration / migration (migrated cells) / adhesion (adherent cells): PBMC; for conclusion: blocking of NDSK-II-induced PBMC adhesion/migration: Examples 9 and 10, with 100 μg NDSK-II; for migration (migrated cells) / adhesion (adherent cells): Example 8, 12 h
# Procedure: (§1) Endothelial cells from human umbilical veins (HUVEC) were marked with a red fluorescent dye (Cell Tracker Orange, 1 μl/ml, Molecular Probes, Eugene, Oreg.) and were dispersed on a collagen matrix (Collaborative Biomedical Products, Bedford, Mass.). Upon confluence of the endothelial cells, peripheral mononuclear blood cells (PBMC) (10^5 cells per 25 mm^2) marked with a green fluorescent dye (Cell Tracker Green, 1 μl/ml, Molecular Probes of Messrs. Eugene, Origon) were superimposed. Thereafter, the cells were incubated at 37° C. for twelve hours.
# (§2) Adhering cells that had transmigrated into the gel were photographed with a laser-scan microscope, were converted into pixels and were evaluated by means of an “NIH image” according to Gröger et al. (J. Immunol. Method 1999; 222: 101-109).
# (§3) It was feasible to determine the number of adherent cells per 0.1 mm^2 such as mentioned under “adhesion”. It was feasible to determine the number of migrated cells per 0.04 mm^3 such as mentioned under “migration”. The mean value of three times three trials was evaluated together with the standard deviation.
# 100 μg of NDSK-II and Bbeta or Bbeta randomized were added to the collagen matrix according to Example 8 comprising the suspension of PBMC, and further proceedings were in accordance with Example 8.
# 100 μg of NDSK-II and Aalpha or Aalpha randomized were added to the collagen matrix according to Example 8 comprising the suspension of PBMC, and further proceedings were in accordance with Example 8.
# lymphocytes = assay: Adhesion and transmigration of pure lymphocytes on HUVEC on a collagen matrix; assay type: cell-based, human; details: for adhesion / migration: lymphocytes
# Procedure: as §1, §2, §3
# Since PBMC substantially consists of a mixture of lymphocytes and monocytes, pure lymphocytes instead of PBMC (as in Examples 8-10) were used in Example 11.
# 100 μg of NDSK-uPA or 100 μg of NDSK-II, respectively, and Aalpha or Bbeta, respectively, were added to the collagen matrix according to Example 8 comprising endothelial cells and lymphocytes.
# The proceedings were in accordance with Example 11, with pure lymphocytes being used. 100 μg of NDSK-uPA or 100 μg of NDSK-II, respectively, was added to the short peptide salts derived from Aalpha Gly Pro Arg (Pro)—NH2 acetate (Aalpha derivative) or derived from Bbeta Gly His Arg Pro-OH acetate (Bbeta derivative).
# monocytes = assay: Adhesion and transmigration of pure monocytes on HUVEC on a collagen matrix; assay type: cell-based, human
# Procedure: as §1, §2, §3
# The proceedings were in accordance with Example 11, except for pure monocytes being used instead of lymphocytes. 100 μg of NDSK-uPA or 100 μg of NDSK-II, respectively, was added to peptide Aalpha, randomized Aalpha, Bbeta or randomized Bbeta.
# The proceedings were in accordance with Example 12, with pure monocytes being used. […] of NDSK-uPA or 100 μg of NDSK-II, respectively, was added to the short peptide salts Aalpha Gly Pro Arg (Pro)—NH2 acetate (Aalpha derivative) or Bbeta Gly His Arg Pro-OH acetate (Bbeta derivative).
# cardiac muscle = assay: Rat cardiac artery occlusion / reperfusion, infarct planimetry
# [3] = Example 9, 10 μg of peptide + 100 μg NDSK-II
# [4] = Example 9, 100 μg of peptide + 100 μg NDSK-II
# [5] = Example 9, 1000 μg of peptide + 100 μg NDSK-II
# [6] = Example 11, 100 μg of peptide + 100 μg NDSK-II
# [7] = Example 11, 100 μg of peptide + 100 μg NDSK-uPA
# [8] = Example 11, substance alone, 100 μg
# [9] = Example 12, 100 μg of peptide + 100 μg NDSK-II
# [10] = Example 12, 100 μg of peptide + 100 μg NDSK-uPA
# [11] = Example 12, substance alone, 100 μg
# [12] = rat, 800 μg/kg intravenously at reperfusion after 25 min occlusion, 2 hours
# [13] = Example 10, 10 μg of peptide + 100 μg NDSK-II
# [14] = Example 10, 100 μg of peptide + 100 μg NDSK-II
# [15] = Example 10, 1000 μg of peptide + 100 μg NDSK-II
# [16] = Example 13, 100 μg of short peptide + 100 μg NDSK-II
# [17] = Example 13, 100 μg of short peptide + 100 μg NDSK-uPA
# [18] = Example 13, substance alone, 100 μg
# [19] = Example 14, 100 μg of short peptide + 100 μg NDSK-II
# [20] = Example 14, 100 μg of short peptide + 100 mg NDSK-uPA
molecule,measurement,setting,value
GHRPLDKKREEAPSLRPAPPPISGGGYR [amino acids 1 to 28 of the beta chain of the fibrin],number of inflammatory sites,[1],6+/−1.1 cells per 0.3 mm^2
same,inflammatory sites,[1],14+/−2 per 0.3 mm^2
same,conclusion: blocking of lymphocytic inflammation,"[1]; Examples 4 to 7, with 100 μg NDSK-II",blocks lymphocytic inflammation
same,adhesion,[2]; [3],63 +/− 33 cells per 0.1 mm^2
same,migration,[2]; [3],7 +/− 4 cells per 0.04 mm^3
same,adhesion,[2]; [4],47 +/− 34 cells per 0.1 mm^2
same,migration,[2]; [4],5 +/− 4 cells per 0.04 mm^3
same,adhesion,[2]; [5],52 +/− 27 cells per 0.1 mm^2
same,migration,[2]; [5],10 +/− 6 cells per 0.04 mm^3
same,conclusion: blocking of NDSK-II-induced PBMC adhesion/migration,[2],blocks inflammations
same,conclusion: blocking of lymphocytic adhesion and migration induced by NDSK-II and NDSK-uPA,lymphocytes; Example 11,completely blocks
same,adhesion,lymphocytes; [6],74 +/− 8 cells per 0.1 mm^2
same,migration,lymphocytes; [6],17 +/− 3 cells per 0.04 mm^3
same,adhesion,lymphocytes; [7],74 +/− 8 cells per 0.1 mm^2
same,migration,lymphocytes; [7],19 +/− 2 cells per 0.04 mm^3
same,adhesion,lymphocytes; [8],58 +/− 18 cells per 0.1 mm^2
same,migration,lymphocytes; [8],14 +/− 1 cells per 0.04 mm^3
same,adhesion,monocytes; [9],70 +/− 7 cells per 0.1 mm^2
same,migration,monocytes; [9],7 +/− 5 cells per 0.04 mm^3
same,adhesion,monocytes; [10],61 +/− 11 cells per 0.1 mm^2
same,migration,monocytes; [10],8 +/− 3 cells per 0.04 mm^3
same,adhesion,monocytes; [11],59 +/− 7 cells per 0.1 mm^2
same,migration,monocytes; [11],5 +/− 1 cells per 0.04 mm^3
same,cardiac muscle threatened because of the vascular occlusion,cardiac muscle; [12],60%
same,endangered tissue that was dead,cardiac muscle; [12],29%
same,reduction of dead tissue,"cardiac muscle; versus reference rats, p<0.05",37%
GPRVVERHQSACKDSDWPFCSDEDWNYK (cysteine pairing not given here) [amino acids 1 to 28 of the alpha chain of the fibrin],number of inflammatory sites,[1],4+/−1.1 cells per 0.3 mm^2
same,inflammatory sites,[1],21+/−2.2 per 0.3 mm^2
same,adhesion,[2]; [13],69 +/− 12 cells per 0.1 mm^2
same,migration,[2]; [13],21 +/− 4 cells per 0.04 mm^3
same,adhesion,[2]; [14],73 +/− 13 cells per 0.1 mm^2
same,migration,[2]; [14],15 +/− 6 cells per 0.04 mm^3
same,adhesion,[2]; [15],70 +/− 6 cells per 0.1 mm^2
same,migration,[2]; [15],13 +/− 5 cells per 0.04 mm^3
same,conclusion: blocking of NDSK-II-induced PBMC adhesion/migration,[2],blocks the migration of PBMC only partially
same,conclusion: blocking of lymphocytic adhesion and migration induced by NDSK-II and NDSK-uPA,lymphocytes; Example 11,no blocking activity
same,adhesion,lymphocytes; [6],131 +/− 4 cells per 0.1 mm^2
same,migration,lymphocytes; [6],44 +/− 4 cells per 0.04 mm^3
same,adhesion,lymphocytes; [7],131 +/− 4 cells per 0.1 mm^2
same,migration,lymphocytes; [7],40 +/− 3 cells per 0.04 mm^3
same,adhesion,lymphocytes; [8],77 +/− 4 cells per 0.1 mm^2
same,migration,lymphocytes; [8],18 +/− 1 cells per 0.04 mm^3
same,adhesion,monocytes; [9],68 +/− 10 cells per 0.1 mm^2
same,migration,monocytes; [9],9 +/− 6 cells per 0.04 mm^3
same,adhesion,monocytes; [10],62 +/− 4 cells per 0.1 mm^2
same,migration,monocytes; [10],8 +/− 5 cells per 0.04 mm^3
same,adhesion,monocytes; [11],59 +/− 6 cells per 0.1 mm^2
same,migration,monocytes; [11],5 +/− 1 cells per 0.04 mm^3
"Gly His Arg Pro-OH acetate (GHRP-OH; also: acetate salt) [Bbeta derivative, short peptide salt derived from Bbeta]",adhesion,lymphocytes; [16],69 +/− 7 cells per 0.1 mm^2
same,migration,lymphocytes; [16],14 +/− 5 cells per 0.04 mm^3
same,adhesion,lymphocytes; [17],70 +/− 8 cells per 0.1 mm^2
same,migration,lymphocytes; [17],16 +/− 3 cells per 0.04 mm^3
same,adhesion,lymphocytes; [18],58 +/− 10 cells per 0.1 mm^2
same,migration,lymphocytes; [18],12 +/− 9 cells per 0.04 mm^3
same,adhesion,monocytes; [19],68 +/− 7 cells per 0.1 mm^2
same,migration,monocytes; [19],8 +/− 4 cells per 0.04 mm^3
same,adhesion,monocytes; [20],61 +/− 11 cells per 0.1 mm^2
same,migration,monocytes; [20],8 +/− 3 cells per 0.04 mm^3
same,adhesion,"monocytes; Example 14, substance alone",52 +/− 7 cells per 0.1 mm^2
same,migration,"monocytes; Example 14, substance alone",6 +/− 1 cells per 0.04 mm^3
Gly Pro Arg (Pro)—NH2 acetate [Aalpha derivative],adhesion,lymphocytes; [16],131 +/− 7 cells per 0.1 mm^2
same,migration,lymphocytes; [16],49 +/− 6 cells per 0.04 mm^3
same,adhesion,lymphocytes; [17],134 +/− 4 cells per 0.1 mm^2
same,migration,lymphocytes; [17],48 +/− 5 cells per 0.04 mm^3
same,adhesion,lymphocytes; [18],77 +/− 4 cells per 0.1 mm^2
same,migration,lymphocytes; [18],18 +/− 1 cells per 0.04 mm^3
same,adhesion,monocytes; [19],64 +/− 11 cells per 0.1 mm^2
same,migration,monocytes; [19],8 +/− 2 cells per 0.04 mm^3
same,adhesion,monocytes; [20],60 +/− 5 cells per 0.1 mm^2
same,migration,monocytes; [20],7 +/− 6 cells per 0.04 mm^3
same,adhesion,"monocytes; Example 14, substance alone",50 +/− 5 cells per 0.1 mm^2
same,migration,"monocytes; Example 14, substance alone",4 +/− 4 cells per 0.04 mm^3
B1,migration (migrated cells),[2]; 0.1 μg/ml,6 +/− 3 cells per 0.04 mm^3
same,adhesion (adherent cells),"[2]; 0.1 μg/ml, mean +/- SD",31 +/− 18 cells per 0.1 mm^2
same,adhesion (adherent cells),[2]; 1.0 μg/ml,35 +/− 18 cells per 0.1 mm^2
same,migration (migrated cells),[2]; 1.0 μg/ml,5 +/− 2 cells per 0.04 mm^3
same,adhesion (adherent cells),[2]; 10.0 μg/ml,36 +/− 24 cells per 0.1 mm^2
same,migration (migrated cells),[2]; 10.0 μg/ml,6 +/− 3 cells per 0.04 mm^3
B2,number of inflammatory sites,[1],9+/−2.1 cells per 0.3 mm^2
same,migration (migrated cells),[2]; 0.1 μg/ml,6 +/− 4 cells per 0.04 mm^3
same,adhesion (adherent cells),"[2]; 0.1 μg/ml, mean +/- SD",30 +/− 26 cells per 0.1 mm^2
same,adhesion (adherent cells),[2]; 1.0 μg/ml,10 +/− 10 cells per 0.1 mm^2
same,migration (migrated cells),[2]; 1.0 μg/ml,3 +/− 2 cells per 0.04 mm^3
same,adhesion (adherent cells),[2]; 10.0 μg/ml,21 +/− 7 cells per 0.1 mm^2
same,migration (migrated cells),[2]; 10.0 μg/ml,5 +/− 4 cells per 0.04 mm^3
